# Assay results from patent US10131652B2, “Pyrimidinyloxy benzene derivatives as herbicides” (E. I. DU PONT DE NEMOURS AND COMPANY, priority 2014, dated 2018).
# Tests used:
# Format in all cases: in vivo
# [1] = tested on: barnyardgrass (Echinochloa crus-galli); assay: Test B pre-/postemergence plant response
# Method in brief: (§1)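 Scoring used a 0–100 scale (100 = complete control) by visual comparison with untreated plants after approximately 10 days in the greenhouse. Compounds, in surfactant-containing non-phytotoxic solvent, were sprayed onto soil at planting or onto 2–10 cm seedlings.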
# corn (Zea mays) [2] = assay: Test B pre-/postemergence plant response
# Method in brief: as §1
# [3] = tested on: giant foxtail (Setaria faberii); assay: Test B pre-/postemergence plant response
# Method in brief: as §1
# [4] = tested on: pigweed (Amaranthus retroflexus); assay: Test B pre-/postemergence plant response
# Method in brief: as §1
# [5] = tested on: wheat (Triticum aestivum); assay: Test B pre-/postemergence plant response
# Method in brief: as §1
# [6] = tested on: Italian ryegrass (Lolium multiflorum); assay: Test D pre-/postemergence plant response
# Description: (§2) Seeds of plant species selected from blackgrass (Alopecurus myosuroides), Italian ryegrass (Lolium multiflorum), winter wheat (Triticum aestivum), galium (catchweed bedstraw, Galium aparine), corn (Zea mays), large (Lg) crabgrass (Digitaria sanguinalis), giant foxtail (Setaria faberii), johnsongrass (Sorghum halepense), lambsquarters (Chenopodium album), morningglory (Ipomoea coccinea), yellow nutsedge (Cyperus esculentus), pigweed (Amaranthus retroflexus), ragweed (common ragweed, Ambrosia elatior), soybean (Glycine max), bamyardgrass (Echinochloa crus-galli), oilseed rape (Brassica napus), waterhemp (common waterhemp, Amaranthus rudis), and velvetleaf (Abutilon theophrasti) were planted into a blend of loam soil and sand and treated preemergence with test chemicals formulated in a non-phytotoxic solvent mixture which included a surfactant. At the same time, plants selected from these crop and weed species and also kochia (Kochia scoparia), wild oat (Avena fatua), and chickweed (common chickweed, Stellaria media) were planted in pots containing Redi-Earth® planting medium (Scotts Company, 14111 Scottslawn Road, Marysville, Ohio 43041) comprising spaghnum peat moss, vermiculite, wetting agent and starter nutrients and treated with postemergence applications of test chemicals formulated in the same manner. Plants ranged in height from 2 to 18 cm (1- to 4-leaf stage) for postemergence treatments. Treated plants and controls were maintained in a greenhouse for 13 to 15 days, after which time all species were compared to controls and visually evaluated. Plant response ratings, summarized in Table D, are based on a scale of 0 to 100 where 0 is no effect and 100 is complete control. A dash (-) response means no test result.
# [7] = tested on: barnyardgrass (Echinochloa crus-galli); assay: Test D pre-/postemergence plant response
# Description: as §2
# [8] = tested on: blackgrass (Alopecurus myosuroides); assay: Test D pre-/postemergence plant response
# Description: as §2
# corn (Zea mays) [9] = assay: Test D pre-/postemergence plant response
# Description: as §2
# [10] = tested on: galium (catchweed bedstraw, Galium aparine); assay: Test D pre-/postemergence plant response
# Description: as §2
# [11] = tested on: giant foxtail (Setaria faberii); assay: Test D pre-/postemergence plant response
# Description: as §2
# [12] = tested on: lambsquarters (Chenopodium album); assay: Test D pre-/postemergence plant response
# Description: as §2
# [13] = tested on: morningglory (Ipomoea coccinea); assay: Test D pre-/postemergence plant response
# Description: as §2
# [14] = tested on: pigweed (Amaranthus retroflexus); assay: Test D pre-/postemergence plant response
# Description: as §2
# [15] = tested on: ragweed (common ragweed, Ambrosia elatior); assay: Test D pre-/postemergence plant response
# Description: as §2
# [16] = tested on: waterhemp (common waterhemp, Amaranthus rudis); assay: Test D pre-/postemergence plant response
# Description: as §2
# [17] = 125 g ai/ha, postemergence, 0 to 100 scale, 0 no effect, 100 complete control
# [18] = Postemergence, 500 g ai/ha, 0 to 100 scale (0 no effect, 100 complete control)
# [19] = Preemergence, 125 g ai/ha, 0 to 100 scale where 0 is no effect and 100 is complete control
# [20] = Preemergence, 500 g ai/ha, 0 to 100 scale where 0 is no effect and 100 is complete control
# [21] = Postemergence, 16 g ai/ha, scale 0 to 100 (0 no effect, 100 complete control)
# [22] = Postemergence, 31 g ai/ha, scale 0 to 100 (0 no effect, 100 complete control)
# [23] = Postemergence, 62 g ai/ha, scale 0 to 100, 0 no effect, 100 complete control
# [24] = Postemergence, 125 g ai/ha, scale 0 to 100, 0 no effect, 100 complete control
# [25] = Preemergence, 16 g ai/ha, scale 0 to 100 (0 no effect, 100 complete control)
# [26] = Preemergence, 31 g ai/ha, scale 0 to 100 (0 no effect, 100 complete control)
# [27] = Preemergence, 62 g ai/ha, scale 0 to 100 (0 no effect, 100 complete control)
smiles,measurement,setting,value
Cc1cc(-c2ccccc2Oc2ncc(Cl)cn2)on1 [Compound 58],"Plant response rating, Barnyardgrass",[1]; [17],70
same,"Plant response rating, Barnyardgrass",[1]; [18],90
same,"Plant response rating, Barnyardgrass",[1]; [19],60
same,"Plant response rating, Barnyardgrass",[1]; [20],100
same,"Plant response rating, Corn",corn (Zea mays) [2]; [17],0
same,"Plant response rating, Corn",corn (Zea mays) [2]; [18],50
same,"Plant response rating, Foxtail, Giant",[3]; [17],70
same,"Plant response rating, Foxtail, Giant",[3]; [18],90
same,"Plant response rating, Foxtail, Giant",[3]; [19],90
same,"Plant response rating, Foxtail, Giant",[3]; [20],100
same,"Plant response rating, Pigweed",[4]; [17],100
same,"Plant response rating, Pigweed",[4]; [18],100
same,"Plant response rating, Pigweed",[4]; [19],100
same,"Plant response rating, Pigweed",[4]; [20],100
same,"Plant response rating, Wheat",[5]; [17],0
same,"Plant response rating, Wheat",[5]; [18],50
same,"Ryegrass, Italian plant response rating",[6]; [21],0
same,"Ryegrass, Italian plant response rating",[6]; [22],0
same,"Plant response rating, Ryegrass, Italian",[6]; [23],0
same,"Plant response rating, Ryegrass, Italian",[6]; [24],0
same,"Plant response rating (scale 0 to 100), Ryegrass, Italian","[6]; Preemergence, 125 g ai/ha",5
same,"Plant response rating, Ryegrass, Italian",[6]; [25],0
same,"Plant response rating, Ryegrass, Italian",[6]; [26],0
same,"Plant response rating, Ryegrass, Italian",[6]; [27],0
same,Barnyardgrass plant response rating,[7]; [21],0
same,Barnyardgrass plant response rating,[7]; [22],0
same,"Plant response rating, Barnyardgrass",[7]; [23],0
same,"Plant response rating, Barnyardgrass",[7]; [24],5
same,"Plant response rating (scale 0 to 100), Barnyardgrass","[7]; Preemergence, 62 g ai/ha",65
same,"Plant response rating (scale 0 to 100), Barnyardgrass","[7]; Preemergence, 125 g ai/ha",80
same,"Plant response rating, Barnyardgrass",[7]; [25],5
same,"Plant response rating, Barnyardgrass",[7]; [26],5
same,Blackgrass plant response rating,[8]; [21],0
same,Blackgrass plant response rating,[8]; [22],0
same,"Plant response rating, Blackgrass",[8]; [23],0
same,"Plant response rating, Blackgrass",[8]; [24],5
same,"Plant response rating (scale 0 to 100), Blackgrass","[8]; Preemergence, 125 g ai/ha",95
same,"Plant response rating, Blackgrass",[8]; [25],0
same,"Plant response rating, Blackgrass",[8]; [26],5
same,"Plant response rating, Blackgrass",[8]; [27],80
same,Corn plant response rating,corn (Zea mays) [9]; [21],0
same,Corn plant response rating,corn (Zea mays) [9]; [22],0
same,"Plant response rating, Corn",corn (Zea mays) [9]; [23],5
same,"Plant response rating, Corn",corn (Zea mays) [9]; [24],5
same,"Plant response rating (scale 0 to 100), Corn","corn (Zea mays) [9]; Preemergence, 125 g ai/ha",20
same,"Plant response rating, Corn",corn (Zea mays) [9]; [25],5
same,"Plant response rating, Corn",corn (Zea mays) [9]; [26],20
same,"Plant response rating, Corn",corn (Zea mays) [9]; [27],10
same,Galium plant response rating,[10]; [21],40
same,Galium plant response rating,[10]; [22],45
same,"Plant response rating, Galium",[10]; [23],60
same,"Plant response rating, Galium",[10]; [24],55
same,"Plant response rating (scale 0 to 100), Galium","[10]; Preemergence, 125 g ai/ha",100
same,"Plant response rating, Galium",[10]; [25],0
same,"Plant response rating, Galium",[10]; [26],98
same,"Plant response rating, Galium",[10]; [27],100
same,"Foxtail, Giant plant response rating",[11]; [21],0
same,"Foxtail, Giant plant response rating",[11]; [22],0
same,"Plant response rating, Foxtail, Giant",[11]; [23],15
same,"Plant response rating, Foxtail, Giant",[11]; [24],30
same,"Plant response rating (scale 0 to 100), Foxtail, Giant","[11]; Preemergence, 125 g ai/ha",98
same,"Plant response rating, Foxtail, Giant",[11]; [25],0
same,"Plant response rating, Foxtail, Giant",[11]; [26],15
same,"Plant response rating, Foxtail, Giant",[11]; [27],85
same,Lambsquarters plant response rating,[12]; [21],10
same,Lambsquarters plant response rating,[12]; [22],75
same,"Plant response rating, Lambsquarters",[12]; [23],60
same,"Plant response rating, Lambsquarters",[12]; [24],90
same,"Plant response rating (scale 0 to 100), Lambsquarters","[12]; Preemergence, 125 g ai/ha",100
same,"Plant response rating, Lambsquarters",[12]; [25],25
same,"Plant response rating, Lambsquarters",[12]; [26],100
same,"Plant response rating, Lambsquarters",[12]; [27],100
same,Morningglory plant response rating,[13]; [21],20
same,Morningglory plant response rating,[13]; [22],45
same,"Plant response rating, Morningglory",[13]; [23],45
same,"Plant response rating, Morningglory",[13]; [24],65
same,"Plant response rating (scale 0 to 100), Morningglory","[13]; Preemergence, 125 g ai/ha",45
same,"Plant response rating, Morningglory",[13]; [25],10
same,"Plant response rating, Morningglory",[13]; [26],25
same,"Plant response rating, Morningglory",[13]; [27],0
same,Pigweed plant response rating,[14]; [21],20
same,Pigweed plant response rating,[14]; [22],25
same,"Plant response rating, Pigweed",[14]; [23],40
same,"Plant response rating, Pigweed",[14]; [24],75
same,"Plant response rating (scale 0 to 100), Pigweed","[14]; Preemergence, 125 g ai/ha",100
same,"Plant response rating, Pigweed",[14]; [25],50
same,"Plant response rating, Pigweed",[14]; [26],100
same,"Plant response rating, Pigweed",[14]; [27],100
same,Ragweed plant response rating,[15]; [21],20
same,Ragweed plant response rating,[15]; [22],45
same,"Plant response rating, Ragweed",[15]; [23],65
same,"Plant response rating, Ragweed",[15]; [24],60
same,"Plant response rating (scale 0 to 100), Ragweed","[15]; Preemergence, 125 g ai/ha",100
same,"Plant response rating, Ragweed",[15]; [25],100
same,"Plant response rating, Ragweed",[15]; [26],35
same,"Plant response rating, Ragweed",[15]; [27],75
same,Waterhemp plant response rating,[16]; [21],35
same,Waterhemp plant response rating,[16]; [22],40
same,"Plant response rating, Waterhemp",[16]; [23],55
same,"Plant response rating, Waterhemp",[16]; [24],75
same,"Plant response rating (scale 0 to 100), Waterhemp","[16]; Preemergence, 125 g ai/ha",100
same,"Plant response rating, Waterhemp",[16]; [25],100
same,"Plant response rating, Waterhemp",[16]; [26],100
same,"Plant response rating, Waterhemp",[16]; [27],100
